{"source": "patent US6376224B1", "about": "“Pharmaceutical compositions for eliminating membrane-mediated cell resistance” (Deutsches Krebsforschungszentrum Stiftung des Offentlichen …, priority 1997, dated 2002)", "key": {"[1]": {"test_system": "KBC5-8 variant (P-glycoprotein-mediated multi-chemoresistance)", "test": "Growth inhibition of multi-chemoresistant KBC5-8 cells after drug incubation and laser exposure", "format": "cell-based, human", "details": "read-out: 50% inhibitory concentration (cell growth)", "method": "(§1) In addition, chemosensitive KB cells (human carcinoma cells) were compared with their chemoresistant KBC5-8 variant. The multi-chemoresistance of the latter is also P-glycoprotein-mediated and was induced experimentally by colchicine addition to the cell culture medium. Before the experiment started, the human carcinoma cells were typsinized and suspended in fresh cell culture medium.\n(§2) Then, the cells were incubated with graded concentrations of vinblastin and napavin (photoactivity-labeled cytostatic agent). […] The mouse ascites cells were incubated with these pharmacetuical agents for five minutes. The human tumor cells were incubated for ten minutes. Then, the cell suspensions were transferred by pipetting into plastic dishes or trays and exposed using an argon laser (457.8 nm, 48 mW/cm^2) at room temperature for 1 minute. Thereafter, the cells were washed with fresh cell culture medium twice and cultured in 24-well multidishes or multitrays for three days. At the end of the experiment, cell growth was measured and the 50% inhibitory concentration of the cytostatic agents vinblastin and napavin was determined graphically as usual."}, "[2]": {"test_system": "KB cells (human carcinoma cells)", "test": "Growth inhibition of chemosensitive KB cells after drug incubation and laser exposure", "format": "cell-based", "details": "for IC50: KB (w.t.), 10 min incubation, 3 days culture, read-out: 50% inhibitory concentration (cell growth)", "method": "as §1, §2"}, "[3]": {"test_system": "mouse ascites cells (strain HD34K)", "test": "Growth inhibition of chemosensitive mouse ascites cells HD34K after drug incubation and laser exposure", "format": "cell-based", "details": "HD34K (w.t.), 5 min incubation, argon laser 1 min, 3 days culture; for IC50: read-out: 50% inhibitory concentration (cell growth)", "method": "(§3) Chemosensitive mouse ascites cells (strain HD34K) were compared with their variant (strain SR) which distinuishes itself by P-glycoprotein-mediated multi-chemoresistance. The chemoresistance of the SR cells developed spontaneously. The mouse ascites cells were suspended in fresh cell culture medium before the experiment started.\n(§4) All of the experiments were carried out under flavin-protecting test conditions (Granzow et al., Cancer Res. 55, 4837-4843, (1995)). Freshly prepared cell suspensions were previously incubated at 36.5° C. for 15 minutes. Then, the cells were incubated with graded concentrations of vinblastin and napavin (photoactivity-labeled cytostatic agent). […] The mouse ascites cells were incubated with these pharmacetuical agents for five minutes. The human tumor cells were incubated for ten minutes. Then, the cell suspensions were transferred by pipetting into plastic dishes or trays and exposed using an argon laser (457.8 nm, 48 mW/cm^2) at room temperature for 1 minute. Thereafter, the cells were washed with fresh cell culture medium twice and cultured in 24-well multidishes or multitrays for three days. At the end of the experiment, cell growth was measured and the 50% inhibitory concentration of the cytostatic agents vinblastin and napavin was determined graphically as usual."}, "[4]": {"test_system": "mouse ascites cells (strain SR, P-glycoprotein-mediated multi-chemoresistance)", "test": "Growth inhibition of multi-chemoresistant mouse ascites cells SR after drug incubation and laser exposure", "format": "cell-based", "details": "for IC50: read-out: 50% inhibitory concentration (cell growth); for 50% growth inhibition concentration in SR relative to wild-type (HD34K) concentration: absence of verapamil", "method": "as §3, §4"}, "[5]": {"details": "no verapamil, argon laser 457.8 nm 1 min"}}, "note": "Read-outs that look alike come from different tables or passages of the source.", "data": [{"compound": "CC[C@]1(O)C[C@@H]2CN(CCc3c([nH]c4ccccc34)[C@@](C(=O)OC)(c3cc4c(cc3OC)N(C)[C@H]3[C@@](O)(C(=O)OC)[C@H](OC(C)=O)[C@]5(CC)C=CCN6CC[C@]43[C@@H]65)C2)C1", "note": "[VLB, vinblastin, reference compound]", "values": [{"measurement": "IC50", "setting": "[1]; Homo sapiens", "result": 27000, "unit": "nM"}, {"measurement": "IC50", "setting": "[2]; Homo sapiens, KB, + 1 μM verapamil, argon laser 1 min", "result": 180, "unit": "nM"}, {"measurement": "IC50", "setting": "[2]; Homo sapiens, KB, no verapamil, argon laser 457.8 nm 1 min", "result": "100 to 200", "unit": "nM"}, {"measurement": "IC50", "setting": "[2]; [5]", "result": 160, "unit": "nM"}, {"measurement": "50% inhibitory concentration (cell growth)", "setting": "[3]; + 1 μM verapamil", "result": "insignificantly higher"}, {"measurement": "IC50", "setting": "[3]; Mus musculus, + 1 μM verapamil", "result": 750, "unit": "nM"}, {"measurement": "IC50", "setting": "[3]; Mus musculus, no verapamil", "result": 660, "unit": "nM"}, {"measurement": "IC50", "setting": "[4]; Mus musculus", "result": 7000, "unit": "nM"}, {"measurement": "50% growth inhibition concentration in SR relative to wild-type (HD34K) concentration", "setting": "[4]", "result": "about 10 times"}]}, {"compound": "COc1ccc(CCN(C)CCCC(C#N)(c2ccc(OC)c(OC)c2)C(C)C)cc1OC", "note": "(stereo not shown) [VPM, verapamil]", "values": [{"measurement": "Influence of verapamil on concentration required for 50% growth suppression", "setting": "[2]; KB cells, vinblastin and napavin", "result": "no influence"}]}, {"compound": "napavin", "values": [{"measurement": "IC50", "setting": "[1]; KBC5-8 (mdr), + 1 μM verapamil, 10 min incubation, argon laser 1 min, 3 days culture", "result": 1000, "unit": "nM"}, {"measurement": "IC50", "setting": "[1]; KBC5-8 (mdr), + 2 μM verapamil, 10 min incubation, argon laser 1 min, 3 days culture", "result": 350, "unit": "nM"}, {"measurement": "IC50", "setting": "[1]; KBC5-8 (mdr), no verapamil, 10 min incubation, argon laser 1 min, 3 days culture", "result": 3800, "unit": "nM"}, {"measurement": "IC50", "setting": "[2]; + 1 μM verapamil, argon laser 1 min", "result": 150, "unit": "nM"}, {"measurement": "IC50", "setting": "[2]; [5]", "result": 160, "unit": "nM"}, {"measurement": "50% inhibitory concentration (cell growth)", "setting": "[3]; + 1 μM verapamil", "result": "slightly less"}, {"measurement": "IC50", "setting": "[3]; + 1 μM verapamil", "result": 330, "unit": "nM"}, {"measurement": "IC50", "setting": "[3]; no verapamil, listed as napavin", "result": "~400", "unit": "nM"}, {"measurement": "IC50", "setting": "[3]; no verapamil", "result": 430, "unit": "nM"}, {"measurement": "IC50", "setting": "[4]; SR (mdr), + 1 μM verapamil, 5 min incubation, argon laser 1 min, 3 days culture", "result": 900, "unit": "nM"}, {"measurement": "IC50", "setting": "[4]; SR (mdr), + 2 μM verapamil, 5 min incubation, argon laser 1 min, 3 days culture", "result": 600, "unit": "nM"}, {"measurement": "IC50", "setting": "[4]; SR (mdr), no verapamil, 5 min incubation, argon laser 1 min, 3 days culture", "result": 4750, "unit": "nM"}, {"measurement": "50% growth inhibition concentration in SR relative to wild-type (HD34K) concentration", "setting": "[4]", "result": 10, "unit": "times"}, {"measurement": "Inhibitory concentrations SR versus wild-type HD34K", "setting": "[4]; with 1 μM verapamil", "result": "no longer differ significantly"}, {"measurement": "Inhibitory concentrations SR versus wild-type HD34K", "setting": "[4]; with 2 μM verapamil", "result": "identical"}]}]}
